Laboratory results reported in patent US20050234113A1, “Antioxidant and radical scavenging activity of synthetic analogs of desferrithiocin” (University of Florida Research Foundation, Inc., priority 2002, published 2005).

Key:
[1] = test system: Myeloperoxidase (MPO) activity in colonic tissue; assay: Myeloperoxidase (MPO) assay in colonic tissue of rats with acetic acid-induced colitis; assay type: in vivo; details: 650 μmol kg^−1 intracolonically 30 min before 4% acetic acid, mean ± standard deviation
Procedure: (§1) The ligands were administered to the rats intracolonically as a suspension or solution in distilled water (2 mL) at a dose of 650 μmol kg^−1. The drug solutions were made fresh for each experiment. ROWASA®, the pharmaceutical preparation which contains 5-ASA (2 mL, 66.7 mg mL^−1) was given at a dose of 2318 μmol kg^−1. Control rats received distilled water (2 mL), administered intracolonically.
(§2) Animal care and experimental procedures were approved by the Institutional Animal Care and Use Committee. Colitis was induced by a modification of published methods. Briefly, the rats were anesthetized with sodium pentobarbital, 55 mg kg^−1 intraperitoneally. The abdomen was shaved and prepared for surgery. A midline incision was made, and the cecum and proximal colon were exteriorized. A reversible suture was placed at the junction of the cecum and proximal colon. The colon was rinsed with saline (10 mL), and the fluid and intestinal contents were gently expressed out the rectum. A gum-based rectal plug was inserted. The compound of interest, or distilled water in the control animals (2 mL), was injected intracolonically just distal to the ligature. The cecum and proximal colon were returned to the abdominal cavity; the compound was allowed to remain in the gut for 30 min. Then, the cecum and proximal colon were reexteriorized. The rectal plug was removed, and the drug was gently expressed out of the colon. Acetic acid (4%, 2 mL) was injected into the proximal colon over a 15-20-second time period. The acid was allowed to remain in the gut until one minute had passed (i.e., 40-45 seconds after the end of the acid administration). The no acid control rats received distilled water (2 mL), which was administered in the same manner as was the acetic acid. Air (10 mL) was then injected into the proximal colon to expel the acid or water. The cecal/proximal colon ligature was removed, the gut was returned to the abdominal cavity, and the incisions were closed. The animals were allowed to recover overnight and were sacrificed 24 hr later. The entire length of the colon was removed and assessed for damage both densitometrically and biochemically.
The activity of MPO was measured in colonic tissue by a modification of the method of Krawisz et al. in Gastroenterology 87, 1344-1350 (1984). Each excised colon was homogenized in 9 volumes of homogenization buffer (0.5% hexadecyltrimethylammonium bromide (HDTMA) in 50 mM sodium acetate, pH 6.0); this homogenate was centrifuged at 1200 g for 20 min at 4° C. A sample of the supernatant (1.8 mL) was transferred into a microcentrifuge tube and stored frozen at −20° C. for up to one week. Prior to assay, the thawed aliquot was centrifuged at about 10,000 g for 15 minutes at 4° C. The final supernatant (33 μL) was added to a solution of o-dianisidine HCl (0.17 mg mL^−1 in 50 mM sodium acetate, pH 6.0, made fresh daily and filtered immediately before use) (950 μL), the mixture was vortexed, and the peroxidase reaction was initiated by the addition of H2O2 to 50 mM sodium acetate, pH 6.0, made fresh daily (16.7 μL). The A470 at room temperature (ca. 23° C.) was read at 15-second intervals for 2 min. The rates were assessed graphically and are presented as change in milliabsorbance units (ΔmAU)/min per g tissue. Under these conditions, 0.1 “Unit” of purified human leukocyte myeloperoxidase (Sigma M-6908) produced a ΔA470 of about 400 mAU/min.
The biochemical measurement involves measuring the level of MPO in a sample of homogenate of the whole rat colon. When the colon is damaged by the acetic acid, there is an extravasation of neutrophils. The extent of this infiltration can serve as a quantitative marker for tissue damage. Although other leukocytes, such as eosinophils and monocytes, also contribute to the inflammatory response, their contribution is small; the majority of the cells recruited during the acute inflammatory response are neutrophils. […]

[2] = test system: acetic acid-induced colitis; assay: Acetic acid-induced colitis in rats, densitometric image analysis of colonic damage; assay type: in vivo; details: for Damage (%): 650 μmol kg^−1 intracolonically 30 min before 4% acetic acid, mean ± standard deviation
Procedure: as §1, §2
Gross damage was quantitated using Photoshop-based image analysis (version 5.0, Adobe Systems, Mountain View, Calif., USA) on an Apple iMac computer. The Magic Wand tool in the Select menu of Photoshop was used to place the cursor on an area of obvious damage. The tolerance level of the Magic Wand tool was set at 30. The damaged areas were automatically selected by using the Similar command in the Select menu. Then, the Eyedropper tool was used to determine the range of the damage in the highlighted areas. Individual colon images were copied to a blank Photoshop page. The Magic Wand tool, with a tolerance set to 100, was used to select all of the pixels in the colon sample. Then, the Histogram tool, which generates a graph in which each vertical line represents the number of pixels associated with a brightness level, was selected in the Image menu. The Red channel was then selected; the darker (damaged areas) appear on the left side of the histogram and the lighter (normal) areas are on the right side. The cursor was then placed on the histogram, the color range determined in an earlier step was selected, and the number of pixels encompassing that range and the percent damage were quantified automatically.
Two means were employed to assess the damage to the colon in the presence and absence of ligand, computer-based image analysis and colonic MPO measurement. The densitometric method removes much of the subjectivity involved in the simple scoring approaches. A digital image of the prepared colonic tissue is taken, and a clearly damaged segment is highlighted on the screen. Once the computer identifies all other segments of the intestine with the same or greater damage, a pixel number is generated; this number makes it possible to calculate the percentage of damaged intestine.

Structure (SMILES) | MPO activity [1] | Damage (%) [2] [%] | protection against acetic acid-induced colonic damage (in words) ([2]; intracolonic, image analysis and MPO assay)
O=C(O)[C@H]1CSC(c2ccc(O)cc2O)=N1 [4′-(HO)-DADMDFT, 4′-hydroxydesazadesmethyldesferrithiocin] | 56466 ± 52617 mAU min^−1g of colonic tissue^−1 | 57 ± 15 | ineffective
CC(=O)N(O)CCCCCNC(=O)CCC(=O)N(O)CCCCCNC(=O)CCC(=O)N(O)CCCCCN [DFO, Desferrioxamine B, reference compound] | 20049 ± 17314 mAU min^−1g of colonic tissue^−1 | 39 ± 15 | –
